Experimental data published in ChEMBL document CHEMBL5661943, “ASAP - In vitro antiviral effect” (2024).
pEC50: −log10 of the molar value. “And” between values parts separate entries of the source, which are not always exact repeats. Identical values can stand only once.

Experiments:
Zika virus [1] = experiment: EC50 is reported via analysis of immunofluorescence staining. The assay has been performed by Icahn School of Medicine at Mount Sinai.; format: functional, organism-based, Chlorocebus sabaeus, VeroE6/TMPRSS2; settings: Baseline response 0 %, Maximum response 100 %, P-gp concentration 2 uM, P-gp inhibitor Elacidar
dengue virus type 2 [2] = experiment: (§1) Functional immunofluorescence assay to measure dose dependent changes in antiviral-drug inhibitory efficacy against Dengue virus type 2 Thailand/16681/84 in Vero E6/TMPRSS2 cells (cotreated with P-gp inhibitor, Elacridar). Cells are treated with antiviral candidates that are serially diluted, following infection, cells are fixed. EC50 is reported via analysis of immunofluorescence staining. The assay has been performed by Icahn School of Medicine at Mount Sinai.; format: organism-based, Chlorocebus sabaeus, VeroE6/TMPRSS2; settings: for EC90: P-gp concentration 2 uM, P-gp inhibitor Elacidar
Zika virus [3] = experiment: (§2) Functional CPE-based assay to measure dose dependent changes in antiviral-drug inhibitory efficacy against Zika virus MR766 in Vero E6 miRFP670 cells. Cells are treated with antiviral candidates that are serially diluted. EC50 is reported via analysis of MTS assay as a readout of CPE. The assay has been performed by KU Leuven.; format: organism-based, Chlorocebus sabaeus, Vero C1008; settings: Zika virus
Zika virus [4] = experiment: as §1, with “Zika” for “Dengue”, “PRVABC59” for “type 2 Thailand/16681/84”, “cells.” for “cells (cotreated with P-gp inhibitor, Elacridar).”; format: organism-based, Chlorocebus sabaeus; settings: VeroE6/TMPRSS2
dengue virus type 2 [5] = experiment: as §1, with “cells.” for “cells (cotreated with P-gp inhibitor, Elacridar).”; format: organism-based, Chlorocebus sabaeus
Zika virus [6] = experiment: as §2, with “cells (cotreated with P-gp inhibitor, CP100356).” for “cells.”; format: organism-based, Chlorocebus sabaeus, Vero C1008; settings: Zika virus, Vero C1008
dengue virus type 2 [7] = experiment: Functional assay to measure dose dependent changes in antiviral-drug inhibitory efficacy against Dengue virus type 2 New Guinea C in Vero E6 miRFP670 cells (cotreated with P-gp inhibitor, CP100356). Cells are treated with antiviral candidates that are serially diluted, following infection, cells are fixed. EC50 is reported via analysis of fluorescence intensity using high-content imager. The …; format: organism-based, Chlorocebus sabaeus, Vero C1008; settings: for EC90: P-gp concentration 500 nM, P-gp inhibitor CP100356
dengue virus type 2 [8] = experiment: as §2, with “Dengue” for “Zika”, “type 2 New Guinea C” for “MR766”, “Huh7” for “Vero E6 miRFP670”, “MTT/MTS” for “MTS”, “National Institute of Allergy and Infectious Diseases.” for “KU Leuven.”; format: organism-based, Homo sapiens; settings: Huh-7

`COc1cc(N[C@@H](C(=O)c2c[nH]c3ccc(OC(F)(F)F)cc23)c2ccc(Cl)cc2OC)cc(S(C)(=O)=O)c1` was tested, and the EC90 (Zika virus [1]; EC90 CI (lower) 0.002 uM, EC90 CI (upper) 0.172 uM, Hill slope -0.792, Maximum measured 161.955 %, Minimum measured 5.205 %, R squared 0.677) was 4830 nM, the EC90 (Zika virus [1]; EC90 CI (lower) 0.029 uM, EC90 CI (upper) 0.11 uM, Hill slope -0.824, Maximum measured 111.518 %, Minimum measured 7.6 %, R squared 0.806) was over 10000 nM and the EC90 (Zika virus [1]; EC90 CI (lower) 0.389 uM, EC90 CI (upper) 1.092 uM, Hill slope -2.761, Maximum measured 123.481 %, Minimum measured 14.219 %, R squared 0.888) was 3200 nM. It also gave an EC90 (Zika virus [1]; Hill slope -12.116, Maximum measured 127.26 %, Minimum measured 45.283 %, R squared 0.53) of over 3330 nM, an EC90 (Zika virus [1]; Hill slope -12.74, Maximum measured 124.12 %, Minimum measured 2.277 %, R squared 0.501) of 3790 nM and an EC90 (Zika virus [1]; Hill slope -15.757, Maximum measured 117.305 %, Minimum measured 4.138 %, R squared 0.906) of 1100 nM. For the same compound, the EC90 (Zika virus [1]; Hill slope -17.776, Maximum measured 116.903 %, Minimum measured 2.275 %, R squared 0.837) was 3170 nM, the EC90 (Zika virus [1]; Hill slope -18.67, Maximum measured 119.05 %, Minimum measured 1.241 %, R squared 0.846) was 3280 nM and the EC90 (dengue virus type 2 [2]; Baseline response 0 %, EC90 CI (lower) 0.626 uM, EC90 CI (upper) 1511.53 uM, Hill slope 3.662, Maximum measured 12.805 %, Maximum response 100 %, Minimum measured 0.049 %, R squared 0.652) was 9.27 µM. For the same compound, the EC90 (dengue virus type 2 [2]; Baseline response 0 %, EC90 CI (lower) […] uM, EC90 CI (upper) […] uM, Hill slope -1.863, Maximum measured 115.571 %, Maximum response 100 %, Minimum measured 6.648 %, R squared 0.785) was 0.061 µM, the EC90 (dengue virus type 2 [2]; Baseline response 0 %, Hill slope 1.613, Maximum measured 7.031 %, Maximum response 100 %, Minimum measured 0.609 %, R squared 0.305) was under 0.005 µM and the EC90 (dengue virus type 2 [2]; Baseline response 0 %, Hill slope 2.619, Maximum measured 1.603 %, Maximum response 100 %, Minimum measured 0.015 %, R squared 0.655) was under 0.005 µM. It also gave an EC90 (dengue virus type 2 [2]; Baseline response 0 %, Hill slope 2.624, Maximum measured 9.128 %, Maximum response 100 %, Minimum measured 0.482 %, R squared 0.941) of under 0.005 µM, an EC90 (dengue virus type 2 [2]; Baseline response 0 %, Hill slope -0.067, Maximum measured 1.374 %, Maximum response 100 %, Minimum measured 0.665 %, R squared 0.06) of under 0.005 µM and an EC90 (dengue virus type 2 [2]; Baseline response 0 %, Hill slope -0.101, Maximum measured 7.568 %, Maximum response 100 %, Minimum measured 3.136 %, R squared 0.228) of under 0.005 µM. For the same compound, the EC90 (dengue virus type 2 [2]; Dengue virus, VeroE6/TMPRSS2, Maximum measured 1.671 %, Minimum measured 0.643 %) was under 0.005 µM, the pEC50 (dengue virus type 2 [2]; veroe6/tmprss2) was > 8.30 and 7.72 and the EC90 (Zika virus [3]; Vero C1008, Baseline response 0 %, Hill slope 9.978, Maximum measured 3.488 %, Maximum response 100 %, Minimum measured -3.611 %, R squared 0.038) was over 50000 nM. For the same compound, the EC90 (Zika virus [3]; Vero C1008, Baseline response 0 %, Hill slope 52.791, Maximum measured 104.354 %, Maximum response 100 %, Minimum measured 0.394 %, R squared 0.996) was 452 nM, the EC90 (Zika virus [3]; Vero C1008, Baseline response 0 %, Hill slope -0.752, Maximum measured 14.519 %, Maximum response 100 %, Minimum measured -4.788 %, R squared 0.067) was under 391 nM and the EC90 (Zika virus [3]; Vero C1008, Baseline response 0 %, Hill slope -0.757, Maximum measured 74.834 %, Maximum response 100 %, Minimum measured -5.889 %, R squared 0.129) was under 391 nM. The EC90 (Zika virus [3]; Vero C1008, Baseline response 0 %, Hill slope -0.835, Maximum measured 99.922 %, Maximum response 100 %, Minimum measured -10.847 %, R squared 0.106) was under 391 nM, the EC90 (Zika virus [3]; Vero C1008, Maximum measured 8.337 %, Minimum measured -6.427 %) was over 50000 nM and the EC90 (Zika virus [3]; Vero C1008, Baseline response 0 %, EC90 CI (lower) 10.077 uM, EC90 CI (upper) 13.839 uM, Hill slope 6.588, Maximum measured 92.835 %, Maximum response 100 %, Minimum measured -3.07 %, R squared 0.987) was 11800 nM. The pEC50 (Zika virus [4]) was 6.26, the EC90 (Zika virus [4]) was 2790 nM and the pEC50 (dengue virus type 2 [5]; VeroE6/TMPRSS2) was over 8.30. It also gave an EC90 (dengue virus type 2 [5]; VeroE6/TMPRSS2, Baseline response 0 %, Hill slope -0.076, Maximum measured 4.343 %, Maximum response 100 %, Minimum measured 1.659 %, R squared 0.062) of under 5 nM, a pEC50 (Zika virus [6]) of 6.14 and an EC90 (Zika virus [6]; Baseline response 0 %, Hill slope 17.55, Maximum measured 78.36 %, Maximum response 100 %, Minimum measured -4.751 %, P-gp concentration 500 nM, R squared 0.965, P-gp inhibitor CP100356) of over 781 nM. It also gave an EC90 (dengue virus type 2 [7]; Baseline response 0 %, Hill slope 0.131, Maximum measured 1.754 %, Maximum response 100 %, Minimum measured 0.009 %, R squared 0.032) of under 391 nM, an EC90 (dengue virus type 2 [7]; Baseline response 0 %, Hill slope 0.182, Maximum measured 0.608 %, Maximum response 100 %, Minimum measured 0.03 %, R squared 0.035) of under 391 nM and an EC90 (dengue virus type 2 [7]; Baseline response 0 %, Hill slope 0.299, Maximum measured 0.369 %, Maximum response 100 %, Minimum measured 0.02 %, R squared 0.601) of under 391 nM. The EC90 (dengue virus type 2 [7]; Baseline response 0 %, Hill slope 0.306, Maximum measured 1.238 %, Maximum response 100 %, Minimum measured 0.01 %, R squared 0.111) was under 391 nM, the EC90 (dengue virus type 2 [7]; Baseline response 0 %, Hill slope 1.135, Maximum measured 0.49 %, Maximum response 100 %, Minimum measured 0.132 %, R squared 0.538) was under 391 nM and the pEC50 (dengue virus type 2 [7]; Dengue virus, Vero C1008) was over 6.41. The EC90 (dengue virus type 2 [7]; Dengue virus, Vero C1008, Maximum measured 0.33 %, Minimum measured 0.072 %) was under 391 nM, the EC90 (dengue virus type 2 [7]; Dengue virus, Vero C1008, Baseline response 0 %, Hill slope 0.447, Maximum measured 0.846 %, Maximum response 100 %, Minimum measured 0.033 %, R squared 0.302) was under 391 nM and the pEC50 (dengue virus type 2 [8]) was over 8.00.
